Experimental data: patent US5438056A (priority 1993, dated 1995)
Where two headings read alike, the source gives them in different places.

What was measured:
cholesterol absorption = test: animal or person; assay type: in vivo, normal rat
[1] = target: cholesterol ester hydrolase (Homo sapiens, UniProt P19835); test: biochemical
[2] = Rattus norvegicus, po, 6 h, read-out: % Decrease ^14 C Chol. Absorption at 6 hr in normal rat

Sequence of cholesterol ester hydrolase (P19835 21-753): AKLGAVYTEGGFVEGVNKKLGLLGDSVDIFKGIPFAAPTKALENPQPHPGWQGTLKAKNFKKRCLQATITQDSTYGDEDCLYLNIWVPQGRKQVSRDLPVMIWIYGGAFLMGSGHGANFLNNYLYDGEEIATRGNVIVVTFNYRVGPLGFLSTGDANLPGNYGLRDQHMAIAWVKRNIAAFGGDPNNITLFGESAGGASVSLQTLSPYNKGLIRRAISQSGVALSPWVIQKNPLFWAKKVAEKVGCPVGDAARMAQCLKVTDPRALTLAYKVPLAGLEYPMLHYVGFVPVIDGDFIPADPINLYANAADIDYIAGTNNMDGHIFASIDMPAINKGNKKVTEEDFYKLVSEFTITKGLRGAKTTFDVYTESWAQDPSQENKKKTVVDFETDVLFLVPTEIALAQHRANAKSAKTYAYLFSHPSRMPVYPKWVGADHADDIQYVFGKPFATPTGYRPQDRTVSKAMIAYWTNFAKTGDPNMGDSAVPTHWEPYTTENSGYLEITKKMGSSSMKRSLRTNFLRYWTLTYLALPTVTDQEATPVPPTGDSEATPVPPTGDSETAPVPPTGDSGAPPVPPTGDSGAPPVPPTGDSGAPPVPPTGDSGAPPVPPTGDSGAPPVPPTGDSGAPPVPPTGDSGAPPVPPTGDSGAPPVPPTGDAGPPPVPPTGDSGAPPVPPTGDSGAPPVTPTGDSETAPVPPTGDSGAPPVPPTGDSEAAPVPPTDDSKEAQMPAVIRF

Row | SMILES | inhibition in vivo at 100 mg/kg (cholesterol absorption; [2]) [%] | IC50 [1] [nM] | other results
1 | CCCCCCCCNC(=O)ON=C(C1=CC(=O)C(C)(C)O1)c1ccccc1 [Example 1, 2,2-Dimethyl-5-[[[[(octylamino)carbonyl]oxy]imino]phenylmethyl]-3(2H)-furanone] | 39 | 1900 | –
2 | CCCCCCCCCCCCNC(=O)ON=C(C1=CC(=O)C(C)(C)O1)c1ccccc1 [Example 2, 2,2-Dimethyl-5-[[[[(dodecylamino)carbonyl]oxy]imino]phenylmethyl]-3(2H)-furanone] | 76 | 570 | –
3 | CC1(C)CCC(NC(=O)ON=C(C2=CC(=O)C(C)(C)O2)c2ccccc2)CC1 [Example 3, 2,2-Dimethyl-5-[[[[[(4,4dimethylcyclohexyl)amino]carbonyl]oxy]imino]phenylmethyl]-3(2H)-furanone] | 44 | 100 | –
4 | CCCCCCCC/C=C\CCCCCCCCNC(=O)ON=C(C1=CC(=O)C(C)(C)O1)c1ccccc1 [Example 4, 2,2-Dimethyl-5-[[[[[(Z)-9-octadecenylamino]carbonyl]oxy]imino]phenylmethyl]-3(2H)-furanone] | 74 | – | IC50 ([1]; read-out: IC50 against CEH): 5400 nM
5 | CCCCCCCC/C=C/CCCCCCCCCNC(=O)ON=C(C1=CC(=O)C(C)(C)O1)c1ccccc1 [Example 5, 2,2-Dimethyl-5-[[[[[(E)-10-nonadecenylamino]carbonyl]oxy]imino]phenylmethyl]-3(2H)-furanone] | – | 25000 | inhibition in vivo at 25 mg/kg (cholesterol absorption; [2]): 39%
6 | CCCCC/C=C/C/C=C/CCCCCCCCNC(=O)ON=C(C1=CC(=O)C(C)(C)O1)c1ccccc1 [Example 6, 2,2-Dimethyl-5-[[[[[(E,E)-9, 12-octadecadienylamino]carbonyl]oxy]imino]phenylmethyl]-3(2H)-furanone] | – | 2700 | inhibition in vivo at 25 mg/kg (cholesterol absorption; [2]): 50%
7 | CCCCCCCCNC(=O)ON=C(C1=CC(=O)C(C)(C2CCCCC2)O1)c1ccccc1 (centres unmarked) [Example 7, 2-Cyclohexyl-2-methyl-5-[[[[(octylamino)carbonyl]oxy]imino]phenylmethyl]-3(2H)-furanone] | 47 | 1900 | –
8 | CCCCCCCCNC(=O)ON=C(C1=CC(=O)C(C)(c2ccccc2)O1)c1ccccc1 (centres unmarked) [Example 8] | 46 | 130 | –
9 | CCCCCCCCNC(=O)ON=C(C1=CC(=O)C(C)(c2ccc(Cl)cc2)O1)c1ccccc1 (centres unmarked) [Example 9, 2-(4-Chlorophenyl)-2-methyl-5-[[[[(octylamino)carbonyl]oxy]imino]phenylmethyl]-3(2H)-furanone] | 62 | 2640 | –
10 | CCCCCCCCNC(=O)ON=C(C1=CC(=O)C(C)(c2ccc(C(C)(C)C)cc2)O1)c1ccccc1 (centres unmarked) [Example 10, 2-[4-(1,1-Dimethylethyl)phenyl]-2-methyl-5-[[[[(octylamino)carbonyl]oxy]imino]phenylmethyl]-3(2H)-furanone] | 46 | 12700 | –
11 | CCCCCCCCNC(=O)ON=C(CCc1ccccc1)C1=CC(=O)C(C)(C)O1 [Example 11] | 57 | 1500 | –
12 | CCCCCCCCCCCCNC(=O)ON=C(C1=C(Br)C(=O)C(C)(C)O1)c1ccccc1 [Example 12, 2,2-Dimethyl-4-bromo-5-[[[[(dodecylamino)carbonyl]oxy]imino]phenylmethyl]3(2H)-furanone] | 69 | 2270 | –
13 | CCCCCCCCCCCCNC(=O)ON=C(C1=CC(=O)C(C)(C)O1)c1ccc(Cl)cc1 [Example 13] | 63 | 10000 | –
14 | O=C(NC1CCCCC1)ON=C(c1ccccc1)c1ccccn1 [Example 14, Phenyl(2-pyridinyl)methanone O-[(cyclohexylamino)carbonyl]oxime] | 44 | 1400 | –
15 | CCCCCCCCNC(=O)ON=C(c1ccccn1)c1ccccn1 [Example 16, Di(2-pyridinyl)methanone O-[(octylamino)carbonyl]oxime] | – | 2770 | inhibition in vivo at 50 mg/kg (cholesterol absorption; [2]): 39%
16 | CCCCCCCCNC(=O)ON=C(c1ccc(F)cc1)c1ccccn1 [Example 17, (4-Fluorophenyl)(2-pyridinyl)methanone O-[(octylamino)carbonyl]oxime] | – | 440 | inhibition in vivo at 50 mg/kg (cholesterol absorption; [2]): 57%
17 | CCCCCCCCNC(=O)ON=C(c1ccc(OC)cc1)c1ccccn1 [Example 18, (4-Methoxyphenyl)(2-pyridinyl)methanone O-[(octylamino)carbonyl]oxime] | – | 2100 | inhibition in vivo at 65 mg/kg (cholesterol absorption; [2]): 45%
18 | CCCCNC(=O)ON=C(c1ccc(N(C)C)cc1)c1ccccn1 [Example 20] | – | – | % Decrease ^14 C Chol. Absorption at 6 hr in normal rat (cholesterol absorption; rat, in vivo): 51%
